{"source": "paper PMC6804243", "about": "“Small-Molecule Inhibition of UBE2T/FANCL-Mediated Ubiquitylation in the Fanconi Anemia Pathway” (ACS Chemical Biology, 2019)", "key": {"UBE2D1": {"tested_on": "T1, UBE2D1", "T1 construct": "His6 (N); made in house; host or cells: E. coli Rosetta (DE3)", "assay": "Gel-based ubiquitylation assay (UBE2D1/GST-FANCLRING), ubiquitylated UBE2D1 species", "assay_type": "biochemical", "conditions": "E2 = UBE2D1, E3 = GST-FANCLRING; 30 min at 37 °C", "protocol": "Figure 2 Gel-based ubiquitylation assays with confirmed HTRF hits. […] Western blots (WB) probed for GST or biotin as labeled. Reactions contained 20 nM His6-UBE1, 50 nM E2, 250 nM GST-E3, 500 nM biotinylated ubiquitin: (a) E2 = UBE2T, E3 = GST-FANCLRING, 30 min of reaction at 37 °C; (b) E2 = UBE2D1, E3 = GST-FANCLRING, 30 min of reaction at 37 °C; and (c) E2 = UBE2D1, E3 = GST-RNF8, 10 min of reaction at 37 °C.\nIn order to explore the selectivity of CU1, CU2, CU9, CU10, and CU12, we conducted a counter-screen against other E2 and E3 combinations. Since members of the UBE2D family of E2s are known to ubiquitylate multiple substrates in vitro,[13] a ubiquitylation assay featuring UBE2D1 and GST-FANCLRING was performed. With UBE2D1, multiple ubiquitylated GST-FANCLRING species could be observed (Figure 2b).\nPurified protein was concentrated using a Vivaspin-6 concentrator with a 10 kDa MW cut-off (Vivascience) and flash-frozen in small aliquots for storage at […]\nCy5 labelling of ubiquitin. […]\nHomogeneous Time-Resolved Fluorescence (HTRF) Assay. […]\n(v/v) DMSO. […] Signal was measured at λEx 340 nm and λEm 665 nm and 620 nm using a PHERAstar FS plate reader\n(BMG Labtech). A ratio was calculated as [λEm(665)/λEm(620)] × 104 for each well and this was used to determine the percent inhibition for test compounds. […]"}, "UBE2T": {"tested_on": "UBE2T", "assay": "Binding to UBE2T by differential scanning fluorimetry, ligand-observed NMR, native mass spectrometry", "conditions": "native mass spectrometry (unpublished data)"}}, "data": [{"smiles": "NC(=O)[C@@H]1CCCN1C(=O)c1cc(-n2cccc2)ccc1Cl", "note": "[CU12]", "values": [{"measurement": "formation of ubiquitylated UBE2D1 species", "setting": "UBE2D1", "value": "prevented the formation of any ubiquitylated UBE2D1 species"}]}, {"smiles": "CCN1CCN(c2cc(C)nc3nc(CN4CCCCC4C)nn23)CC1", "note": "(centres unmarked) [CU2]", "values": [{"measurement": "binding to UBE2T", "setting": "UBE2T", "value": "did not observe binding"}]}]}
